In test [1] the target is T1, Bromodomain-containing protein 4 (Homo sapiens, UniProt O60885). The experiment in a line: Inhibition of BRD4 BD2 (unknown origin) using SGRGK(Ac)GGK(Ac)GLGK(Ac) GGAK(Ac)RHRK-biotinylated peptide as substrate incubated for 60 mins by alpha screen assay. In general terms: Bead proximity is the source of the signal in Alpha formats.
Test [2] concerns the target T1, Bromodomain-containing protein 4. The experiment in a line: Inhibition of N-terminal GST-tagged/C-terminal 6His-tagged BRD4 BD1 (47 to 170 residues) (unknown origin) expressed in Escherichia coli BL21 (DE3) using SGRGK(Ac)GGK(Ac)GLGK(Ac) GGAK(Ac)RHRK-biotinylated peptide as substrate incubated for 60 mins by alpha screen assay.

Structures are written as SMILES.

As to `COC(=O)NS(=O)(=O)Nc1ccc(NC(C)C)nc1Nc1ccc2[nH]nnc2c1`, the IC50 (in general, the concentration that inhibits the measured activity by half) in test [1] was determined as 1.06 µM; in test [2], 1.18 µM.
For `CC(C)Nc1ccc(NS(=O)(=O)c2c(F)cc(F)cc2F)c(Nc2ccc3[nH]nnc3c2)n1`, in that order: 0.9 µM and 0.62 µM.
The matching figures for `CCCS(=O)(=O)Nc1ccc(NC(C)C)nc1Nc1ccc2[nH]nnc2c1`: 3.02 µM and 3.23 µM.
For `CN(C)S(=O)(=O)Nc1ccc(NC2COC2)nc1Nc1ccc2[nH]nnc2c1`, the values for the IC50 in test [1] and in test [2] were 9.95 µM and 6.85 µM, respectively.
The matching figures for `CC(C)Nc1ccc([N+](=O)[O-])c(Nc2ccc3c(c2)nnn3S(=O)(=O)c2ccc(F)cc2)n1`: 6.17 µM and 3.87 µM.
The matching figures for `CC(C)Nc1ccc(NS(=O)(=O)C2CC2)c(Nc2ccc3[nH]nnc3c2)n1`: 1.8 µM and 1.83 µM.
Consider `CN(C)S(=O)(=O)Nc1ccc(NCCc2ccccc2)nc1Nc1ccc2[nH]nnc2c1`, for which, in test [2], half-maximal inhibition (IC50) was put at 5.25 µM.
Take `CC(C)Nc1ccc(NC(=O)c2ccccc2)c(Nc2ccc3[nH]nnc3c2)n1`: the half-maximal inhibitory concentration (IC50) in test [1] amounted to 12.3 µM; in test [2], 3.98 µM.
For `CC(C)Nc1ccc(NS(=O)(=O)c2ccccc2C(F)(F)F)c(Nc2ccc3[nH]nnc3c2)n1`, in that order: 1.57 µM and 1.61 µM.
As to `CN(C)S(=O)(=O)Nc1ccc(NCCN2CCOCC2)nc1Nc1ccc2[nH]nnc2c1`, the IC50 in test [1] was found to be 11.5 µM; in test [2], 7.97 µM.
The matching figures for `CC(C)Nc1ccc([N+](=O)[O-])c(Nc2ccc3c(c2)nnn3C(=O)c2ccccc2)n1`: 10.2 µM and 4.27 µM.
The matching figures for `CN(C)S(=O)(=O)Nc1ccc(NCc2ccc(F)cc2F)nc1Nc1ccc2[nH]nnc2c1`: 11.3 µM and 7.64 µM.
For `CN(C)S(=O)(=O)Nc1ccc(NCCCN2CCOCC2)nc1Nc1ccc2[nH]nnc2c1`, in that order: 15 µM and 5.41 µM.
Regarding `CN(C)S(=O)(=O)Nc1ccc(NCCc2c[nH]c3ccccc23)nc1Nc1ccc2[nH]nnc2c1`, half-maximal inhibition in test [2] (IC50) required 3.62 µM.
Turning to `CC(C)Nc1ccc([N+](=O)[O-])c(Nc2ccc3c(c2)nnn3S(=O)(=O)c2ccccc2)n1`, the IC50 in test [1] was 4.47 µM; in test [2] it was 3.1 µM.
For `CC(C)Nc1ccc(NS(=O)(=O)c2ccccc2)c(Nc2ccc3[nH]nnc3c2)n1`, in that order: 0.64 µM and 0.51 µM.
The matching figures for `CC(C)Nc1ccc(NC(=O)Nc2ccccc2)c(Nc2ccc3[nH]nnc3c2)n1`: 10.2 µM and 6.89 µM.
In the case of `CN(C)S(=O)(=O)Nc1ccc(NCc2ccccc2)nc1Nc1ccc2[nH]nnc2c1`, 2.23 µM corresponded to half-maximal inhibition in test [2] (IC50). This lies in the single-digit micromolar range.
In the case of `CN(C)S(=O)(=O)Nc1ccc(N2C3CCC2COC3)nc1Nc1ccc2[nH]nnc2c1`, the IC50 in test [1] worked out at 4.38 µM; in test [2], 4.45 µM.
Regarding `CC(C)Nc1ccc(NS(=O)(=O)c2ccc(F)cc2)c(Nc2ccc3[nH]nnc3c2)n1`, the figures for the IC50 in test [1] and in test [2] were 0.3 µM and 0.24 µM, respectively.
For `C[C@H](Nc1ccc(NS(=O)(=O)N(C)C)c(Nc2ccc3[nH]nnc3c2)n1)[C@@H](c1ccccc1)N(C)C`, in that order: 6.9 µM and 3.22 µM.
As for `CN(C)S(=O)(=O)Nc1ccc(NCCO)nc1Nc1ccc2[nH]nnc2c1`, the IC50 in test [1] stood at 8.25 µM; in test [2], 5.7 µM.
The matching figures for `CC(C)Nc1ccc(NS(=O)(=O)c2ccc(F)cc2F)c(Nc2ccc3[nH]nnc3c2)n1`: 0.72 µM and 0.8 µM.
For `CN(C)S(=O)(=O)Nc1ccc(NCC2CCCO2)nc1Nc1ccc2[nH]nnc2c1` (stereo not drawn), in that order: 8.42 µM and 9.6 µM.
The matching figures for `CC(C)Nc1ccc(NS(=O)(=O)c2c(F)cccc2F)c(Nc2ccc3[nH]nnc3c2)n1`: 1.04 µM and 0.78 µM.
For `CC(C)Nc1ccc([N+](=O)[O-])c(Nc2ccc3c(c2)nnn3C(=O)Nc2ccccc2)n1`, the IC50 in test [1] came to 5.84 µM; in test [2], 5.13 µM.
As to `CN(C)S(=O)(=O)Nc1ccc(N2CCOCC2)nc1Nc1ccc2[nH]nnc2c1`, the IC50 in test [1] came out at 5.82 µM; in test [2], 4.6 µM.
The compound `CN(C)S(=O)(=O)Nc1ccc(NCc2ccc3c(c2)OCO3)nc1Nc1ccc2[nH]nnc2c1` returned an IC50 in test [2] of 7.7 µM.
Take `CN(C)S(=O)(=O)Nc1ccc(NCC(O)c2ccccc2)nc1Nc1ccc2[nH]nnc2c1` (stereo not drawn): the IC50 in test [1] worked out at 5.11 µM; in test [2], 5.59 µM.
The matching figures for `CC(C)Nc1ccc([N+](=O)[O-])c(Nc2ccc3[nH]nnc3c2)n1`: 10 µM and 9.8 µM.
The matching figures for `CC(C)Nc1ccc(NS(=O)(=O)C2CCCCC2)c(Nc2ccc3[nH]nnc3c2)n1`: 0.9 µM and 0.66 µM.
Regarding `CN(C)S(=O)(=O)Nc1ccc(NCc2ccc(F)cc2)nc1Nc1ccc2[nH]nnc2c1`, in test [2], the IC50 worked out at 5.24 µM.
As for `CC(C)Nc1ccc(NS(=O)(=O)N(C)C)c(Nc2ccc3[nH]nnc3c2)n1`, the half-inhibitory concentration (IC50) in test [1] was determined as 2.05 µM; in test [2] it was 1.69 µM.
Compound `CN(C)S(=O)(=O)Nc1ccc(NCc2cccc3ccccc23)nc1Nc1ccc2[nH]nnc2c1` showed an IC50 in test [2] of 7.91 µM.
On to `CC(C)Nc1ccc(NS(=O)(=O)C(C)C)c(Nc2ccc3[nH]nnc3c2)n1`, for which the IC50 came out at 1.24 µM in test [1] and 1.12 µM in test [2].
For `CN(C)S(=O)(=O)Nc1ccc(NCc2ccco2)nc1Nc1ccc2[nH]nnc2c1`, in that order: 23 µM and 6.22 µM.
As to `CCS(=O)(=O)Nc1ccc(NC(C)C)nc1Nc1ccc2[nH]nnc2c1`, the figures for the IC50 in test [1] and in test [2] were 4.47 µM and 3.86 µM, respectively.
The matching figures for `CC(C)Nc1ccc(NS(=O)(=O)c2ccccc2F)c(Nc2ccc3[nH]nnc3c2)n1`: 1.66 µM and 1.42 µM.
The matching figures for `CN(C)S(=O)(=O)Nc1ccc(NCC2CC2)nc1Nc1ccc2[nH]nnc2c1`: 5.63 µM and 4.45 µM.
For `CC(C)Nc1ccc(NS(C)(=O)=O)c(Nc2ccc3[nH]nnc3c2)n1`, in that order: 2.86 µM and 2.47 µM.
For the compound `CC(C)Nc1ccc([N+](=O)[O-])c(Nc2ccc3c(c2)nnn3C)n1`, the IC50 was found to be 10.3 µM in test [1] and 4.22 µM in test [2].
For `CC(C)Nc1ccc(NS(=O)(=O)c2cccs2)c(Nc2ccc3[nH]nnc3c2)n1`, in that order: 0.78 µM and 0.77 µM.
As for `CC(C)Nc1ccc(NS(=O)(=O)c2cccnc2)c(Nc2ccc3[nH]nnc3c2)n1`, the IC50 in test [1] was 0.8 µM; in test [2] it was 0.83 µM.
The matching figures for `CN(C)S(=O)(=O)Nc1ccc(N2CCS(=O)(=O)CC2)nc1Nc1ccc2[nH]nnc2c1`: 10.4 µM and 20.1 µM.
In test [2], `CN(C)S(=O)(=O)Nc1ccc(NCC(c2ccccc2)c2ccccc2)nc1Nc1ccc2[nH]nnc2c1` came in with an IC50 of 8.83 µM.

Source of the values: ChEMBL document CHEMBL5360526, “Discovery of BET specific bromodomain inhibitors with a novel scaffold” (Bioorg Med Chem, 2022).
